Source: patent US20110015065A1 (priority 2008, published 2011)

Columns and labels:
Pyricularia oryzae = format: cell-based; conditions: 10 days after inoculation
Phakopsora pachyrhizi = assay: Curative control of soybean rust on soy beans caused by Phakopsora pachyrhizi (glasshouse); format: in vivo; conditions: comparative trial (Use example 7), untreated 100
Procedure: The active compounds were formulated separately or together as a stock solution comprising 25 mg of active compound which was made up to 10 ml using a mixture of acetone and/or dimethyl sulfoxide (DMSO) and the emulsifier Wettol EM 31 (wetting agent having emulsifying and dispersing action based on ethoxylated alkylphenols) in a volume ratio of solvent/emulsifier of 99 to 1. This solution was then made up to 100 ml using water. This stock solution was diluted with the solvent/emulsifier/water mixture described to the active compound concentration given below.
Leaves of pot-grown soybean seedlings were inoculated with spores of Phakopsora pachyrhizi. To ensure the success of the artificial inoculation, the plants were transferred to a humid chamber with a relative humidity of about 95% and 23 to 27° C. for 24 h. The next day the plants were sprayed to run-off with an aqueous suspension, containing the concentration of active ingredient or their mixture as described below. The plants were allowed to air-dry. Then the trial plants were cultivated for 14 days in a greenhouse chamber at 23-27° C. and a relative humidity between 60 and 80%. The extent of fungal attack on the leaves was visually assessed as % diseased leaf area.
The spray solutions were prepared as described for “Examples of the action against harmful fungi” (II. B).
The trial was conducted as described for Use example 3.

SMILES	Growth (%) at 2 ppm (Pyricularia oryzae)	Disease level (%) at 250 ppm (Phakopsora pachyrhizi)	Growth (%) at 31 ppm (Pyricularia oryzae)
COc1cc(CNS(=O)(=O)c2ccc(-c3ccc(Cl)cc3Cl)cc2)ccn1 [Table C) I-76 according to WO06/097489]	68%	–	–
COc1cc(CNS(=O)(=O)c2ccc(-c3ccc(C(F)(F)F)cc3C(F)(F)F)cc2)sn1 [I-2]	–	5%	–
COc1cc(CNS(=O)(=O)c2ccc(-c3ccc(Cl)cc3Cl)cc2)sn1 [I-3]	46%	–	–
Cn1nccc1CNS(=O)(=O)c1ccc(-c2ccc(Cl)cc2Cl)cc1 [I-46]	–	–	16%
Cc1cnccc1CNS(=O)(=O)c1ccc(-c2ccc(Cl)cc2Cl)cc1	–	–	30%
COc1cc(CNS(=O)(=O)c2ccc(-c3ccc(C(F)(F)F)cc3C(F)(F)F)cc2)ccn1	–	100%	–
